Data published in PubChem BioAssay AID288 (DTP/NCI, 2004).
Values joined by “and” are separate entries in the source; they are usually repeats but may differ in a detail not shown here. Equal values may be shown once. Inconclusive results are not listed.

Tested on: BDF1 mice, M5076 sarcoma s.c., survival/tumor T/C
Assay: NCI In Vivo Anticancer Drug Screen. Data for tumor model Sarcoma M5076 (subcutaneous) in B6D2F1 (BDF1) mice
Protocol: The antitumor activity of compounds was measured in mice bearing transplantable tumors. Survival or tumor size were measured and the results are expressed as the measurement made in the treated group (T) divided by the measurement made in the vehicle treated control group (C). The tumor model used in this assay is Sarcoma M5076 (subcutaneous) in B6D2F1 (BDF1) mice

[1] = endpoint: median tumor weight (est.), dose: 1.5 mg/kg/injection, schedule: Q01DX009 (ip), vehicle: saline + alcohol, higher = larger tumour
[2] = endpoint: median survival time, dose: 50.0 mg/kg/injection, schedule: Q01DX009 (ip), vehicle: saline with Tween-80, higher = longer survival
[3] = endpoint: median survival time, dose: 100.0 mg/kg/injection, schedule: Q01DX009 (ip), vehicle: saline with Tween-80, higher = longer survival
[4] = endpoint: median survival time, dose: 200.0 mg/kg/injection, schedule: Q01DX009 (ip), vehicle: saline with Tween-80, higher = longer survival
[5] = endpoint: median tumor weight (est.), dose: 50.0 mg/kg/injection, schedule: Q01DX009 (ip), vehicle: saline with Tween-80, higher = larger tumour
[6] = endpoint: median tumor weight (est.), dose: 200.0 mg/kg/injection, schedule: Q01DX009 (ip), vehicle: saline with Tween-80, higher = larger tumour

In the case of `O=NN(CCCl)C(=O)NCCCl`, the T/C (endpoint: median survival time, dose: 1.35 mg/kg/injection, schedule: Q04DX009 (ip), vehicle: saline with Tween-80, higher = longer survival) is reported as 108 % of control, the T/C (endpoint: median survival time, dose: 2.7 mg/kg/injection, schedule: Q02DX033 (ip), vehicle: saline, higher = longer survival) is reported as 233 % of control and the T/C (endpoint: median survival time, dose: 2.7 mg/kg/injection, schedule: Q04DX009 (ip), vehicle: saline with Tween-80, higher = longer survival) is reported as 121 % of control. The T/C (endpoint: median survival time, dose: 5.4 mg/kg/injection, schedule: Q02DX033 (ip), vehicle: saline, higher = longer survival) was 171 % of control, the T/C (endpoint: median survival time, dose: 5.4 mg/kg/injection, schedule: Q04DX009 (ip), vehicle: saline with Tween-80, higher = longer survival) was 254 % of control and the T/C (endpoint: median survival time, dose: 6.0 mg/kg/injection, schedule: Q01DX009 (ip), vehicle: saline + alcohol, higher = longer survival) was 159 % of control. For the same molecule, the T/C (endpoint: median survival time, dose: 10.8 mg/kg/injection, schedule: Q04DX009 (ip), vehicle: saline with Tween-80, higher = longer survival) was 238 % of control and the T/C [1] was 25 % of control.

With `CC1(C)OCC(CO)(Nc2nc(N3CC3)nc(N3CC3)n2)CO1` the T/C (endpoint: median survival time, dose: 0.78 mg/kg/injection, schedule: Q02DX011 (ip), vehicle: saline, higher = longer survival) was 98 % of control, the T/C (endpoint: median survival time, dose: 1.56 mg/kg/injection, schedule: Q02DX011 (ip), vehicle: saline, higher = longer survival) was 110 % of control and the T/C (endpoint: median survival time, dose: 3.12 mg/kg/injection, schedule: Q02DX011 (ip), vehicle: saline, higher = longer survival) was 164 % of control.

In the case of `COc1ccc(Cl)cc1NC(=O)NNC(=O)C(=O)Nc1ccc(F)cc1`, the T/C [2] is reported as 106 % of control, the T/C [3] is reported as 106 % of control and the T/C [4] is reported as 113 % of control. For the same molecule, the T/C [5] was 87 % of control and the T/C [6] was 115 % of control.

For `CSc1ccc(NC(=O)NNP(=S)(Oc2ccc(C(C)(C)C)cc2)Oc2ccc(C(C)(C)C)cc2)cc1`, the T/C [2] was 102 % of control, the T/C [3] was 107 % of control and the T/C [4] was 87 % of control. For the same molecule, the T/C [5] was 92 % of control, the T/C (endpoint: median tumor weight (est.), dose: 100.0 mg/kg/injection, schedule: Q01DX009 (ip), vehicle: saline with Tween-80, higher = larger tumour) was 83 % of control and the T/C [6] was 92 % of control.

For `CNc1nc(N(C)C)nc(N(C)C)n1`, the T/C (endpoint: median tumor weight (est.), dose: 15.0 mg/kg/injection, schedule: Q02DX011 (ip), vehicle: water, higher = larger tumour) was 87 % of control, the T/C (endpoint: median tumor weight (est.), dose: 30.0 mg/kg/injection, schedule: Q02DX011 (ip), vehicle: water, higher = larger tumour) was 85 % of control and the T/C (endpoint: median tumor weight (est.), dose: 60.0 mg/kg/injection, schedule: Q02DX011 (ip), vehicle: water, higher = larger tumour) was 43 % of control. For the same molecule, the T/C (endpoint: median tumor weight (est.), dose: 120.0 mg/kg/injection, schedule: Q02DX011 (ip), vehicle: water, higher = larger tumour) was 13 % of control.

With `O=c1[nH]c(=O)n([C@H]2CCCO2)cc1F` the T/C (endpoint: mean tumor weight, dose: 50.0 mg/kg/injection, schedule: Q02DX011 (ip), vehicle: alkali diluted with saline, higher = larger tumour) was 150 % of control, the T/C (endpoint: mean tumor weight, dose: 100.0 mg/kg/injection, schedule: Q02DX011 (ip), vehicle: alkali diluted with saline, higher = larger tumour) was 93 % of control and the T/C (endpoint: mean tumor weight, dose: 200.0 mg/kg/injection, schedule: Q02DX011 (ip), vehicle: alkali diluted with saline, higher = larger tumour) was 74 % of control.

With `COC(=N)CCCCC(=N)OC` the T/C (endpoint: median survival time, dose: 50.0 mg/kg/injection, schedule: Q01DX009 (ip), vehicle: saline, higher = longer survival) was 98 % of control, the T/C (endpoint: median survival time, dose: 100.0 mg/kg/injection, schedule: Q01DX009 (ip), vehicle: saline, higher = longer survival) was 98 % of control and the T/C (endpoint: median survival time, dose: 200.0 mg/kg/injection, schedule: Q01DX009 (ip), vehicle: saline, higher = longer survival) was 98 % of control. For the same molecule, the T/C (endpoint: median tumor weight (est.), dose: 50.0 mg/kg/injection, schedule: Q01DX009 (ip), vehicle: saline, higher = larger tumour) was 87 % of control and the T/C (endpoint: median tumor weight (est.), dose: 100.0 mg/kg/injection, schedule: Q01DX009 (ip), vehicle: saline, higher = larger tumour) was 86 % of control.

For `COC1=C(C)C(=O)C2=C(C1=O)C(CO)N1C(C#N)C3CC4C(C1C2N1CCOC41)N3C` (stereo not drawn), the T/C (endpoint: median survival time, dose: 0.06 mg/kg/injection, schedule: Q01DX009 (ip), vehicle: saline + alcohol, higher = longer survival) was 100 % of control, the T/C (endpoint: median survival time, dose: 0.13 mg/kg/injection, schedule: Q01DX009 (ip), vehicle: saline + alcohol, higher = longer survival) was 96 % of control and the T/C (endpoint: median survival time, dose: 0.25 mg/kg/injection, schedule: Q01DX009 (ip), vehicle: saline + alcohol, higher = longer survival) was 91 % of control. The T/C (endpoint: median survival time, dose: 0.5 mg/kg/injection, schedule: Q01DX009 (ip), vehicle: saline + alcohol, higher = longer survival) was 106 % of control, the T/C (endpoint: median tumor weight (est.), dose: 0.06 mg/kg/injection, schedule: Q01DX009 (ip), vehicle: saline + alcohol, higher = larger tumour) was 103 % of control and the T/C (endpoint: median tumor weight (est.), dose: 0.13 mg/kg/injection, schedule: Q01DX009 (ip), vehicle: saline + alcohol, higher = larger tumour) was 153 % of control. The T/C (endpoint: median tumor weight (est.), dose: 0.25 mg/kg/injection, schedule: Q01DX009 (ip), vehicle: saline + alcohol, higher = larger tumour) was 95 % of control and the T/C (endpoint: median tumor weight (est.), dose: 0.5 mg/kg/injection, schedule: Q01DX009 (ip), vehicle: saline + alcohol, higher = larger tumour) was 80 % of control.

For `CNNCc1ccc(C(=O)NC(C)C)cc1`, the T/C (endpoint: median survival time, dose: 44.0 mg/kg/injection, schedule: Q04DX006 (ip), vehicle: saline, higher = longer survival) was 118 % of control, the T/C (endpoint: median survival time, dose: 88.0 mg/kg/injection, schedule: Q02DX033 (ip), vehicle: saline, higher = longer survival) was 214 % of control and the T/C (endpoint: median survival time, dose: 88.0 mg/kg/injection, schedule: Q04DX006 (ip), vehicle: saline, higher = longer survival) was 151 % of control. For the same molecule, the T/C (endpoint: median survival time, dose: 176.0 mg/kg/injection, schedule: Q02DX033 (ip), vehicle: saline, higher = longer survival) was 92 % of control, the T/C (endpoint: median survival time, dose: 176.0 mg/kg/injection, schedule: Q04DX006 (ip), vehicle: saline, higher = longer survival) was 216 % of control and the T/C (endpoint: median survival time, dose: 352.0 mg/kg/injection, schedule: Q04DX006 (ip), vehicle: saline, higher = longer survival) was 179 % of control.

With `CCCCCCC(=O)O[C@H]1CC[C@H]2[C@@H]3CCC4=CC(=O)CC[C@]4(C)[C@H]3CC[C@]12C` the T/C (endpoint: mean tumor weight, dose: 15.0 mg/kg/injection, schedule: Q02DX011 (ip), vehicle: Klucel (hydroxypropylcellulose) (HPC), higher = larger tumour) was 43 % of control, the T/C (endpoint: mean tumor weight, dose: 30.0 mg/kg/injection, schedule: Q02DX011 (ip), vehicle: Klucel (hydroxypropylcellulose) (HPC), higher = larger tumour) was 68 % of control and the T/C (endpoint: median tumor weight (est.), dose: 7.5 mg/kg/injection, schedule: Q02DX011 (ip), vehicle: Klucel (hydroxypropylcellulose) (HPC), higher = larger tumour) was 124 % of control. The T/C (endpoint: median tumor weight (est.), dose: 15.0 mg/kg/injection, schedule: Q02DX011 (ip), vehicle: Klucel (hydroxypropylcellulose) (HPC), higher = larger tumour) was 21 % of control and the T/C (endpoint: median tumor weight (est.), dose: 30.0 mg/kg/injection, schedule: Q02DX011 (ip), vehicle: Klucel (hydroxypropylcellulose) (HPC), higher = larger tumour) was 52 % of control.

`N[C@H](C(=O)O)[C@@H]1CC(Cl)=NO1` was tested, and the T/C (endpoint: mean tumor weight, dose: 2.0 mg/kg/injection, schedule: Q02DX011 (ip), vehicle: saline, higher = larger tumour) was 2 % of control, the T/C (endpoint: median survival time, dose: 2.0 mg/kg/injection, schedule: Q01DX010 (ip), vehicle: saline, higher = longer survival) was 165 % of control and the T/C (endpoint: median survival time, dose: 4.0 mg/kg/injection, schedule: Q01DX010 (ip), vehicle: saline, higher = longer survival) was 177 % of control. The T/C (endpoint: median survival time, dose: 8.0 mg/kg/injection, schedule: Q01DX010 (ip), vehicle: saline, higher = longer survival) was 178 % of control, the T/C (endpoint: median survival time, dose: 16.0 mg/kg/injection, schedule: Q01DX010 (ip), vehicle: saline, higher = longer survival) was 90 % of control and the T/C (endpoint: median survival time, dose: 32.0 mg/kg/injection, schedule: Q04DX005 (ip), vehicle: saline, higher = longer survival) was 171 % of control and 176 % of control. For the same molecule, the T/C (endpoint: median survival time, dose: 64.0 mg/kg/injection, schedule: Q04DX005 (ip), vehicle: saline, higher = longer survival) was 184 % of control and 186 % of control and the T/C (endpoint: median survival time, dose: 128.0 mg/kg/injection, schedule: Q04DX005 (ip), vehicle: saline, higher = longer survival) was 193 % of control and 195 % of control.

For `CN1C(=O)CN2CCc3ccccc3C2c2cc(Cl)ccc21` (stereo not drawn), the T/C [2] was 99 % of control, the T/C [3] was 102 % of control and the T/C [4] was 105 % of control.

For `O=C1N[C@H]2[C@H](O)[C@H](O)[C@@H](O)[C@H](O)[C@@H]2c2cc3c(c(O)c21)OCO3`, the T/C (endpoint: median survival time, dose: 0.38 mg/kg/injection, schedule: Q01DX009 (ip), vehicle: saline + alcohol, higher = longer survival) was 101 % of control, the T/C (endpoint: median survival time, dose: 0.75 mg/kg/injection, schedule: Q01DX009 (ip), vehicle: saline + Tween-80 + alcohol, higher = longer survival) was 106 % of control and the T/C (endpoint: median survival time, dose: 0.75 mg/kg/injection, schedule: Q01DX009 (ip), vehicle: saline + alcohol, higher = longer survival) was 89 % of control. The T/C (endpoint: median survival time, dose: 1.5 mg/kg/injection, schedule: Q01DX009 (ip), vehicle: saline + Tween-80 + alcohol, higher = longer survival) was 111 % of control, the T/C (endpoint: median survival time, dose: 1.5 mg/kg/injection, schedule: Q01DX009 (ip), vehicle: saline + alcohol, higher = longer survival) was 94 % of control and the T/C (endpoint: median survival time, dose: 3.0 mg/kg/injection, schedule: Q01DX009 (ip), vehicle: saline + alcohol, higher = longer survival) was 120 % of control. For the same molecule, the T/C (endpoint: median tumor weight (est.), dose: 0.38 mg/kg/injection, schedule: Q01DX009 (ip), vehicle: saline + alcohol, higher = larger tumour) was 103 % of control, the T/C (endpoint: median tumor weight (est.), dose: 0.75 mg/kg/injection, schedule: Q01DX009 (ip), vehicle: saline + Tween-80 + alcohol, higher = larger tumour) was 80 % of control and the T/C (endpoint: median tumor weight (est.), dose: 0.75 mg/kg/injection, schedule: Q01DX009 (ip), vehicle: saline + alcohol, higher = larger tumour) was 96 % of control. For the same molecule, the T/C (endpoint: median tumor weight (est.), dose: 1.5 mg/kg/injection, schedule: Q01DX009 (ip), vehicle: saline + Tween-80 + alcohol, higher = larger tumour) was 49 % of control, the T/C [1] was 64 % of control and the T/C (endpoint: median tumor weight (est.), dose: 3.0 mg/kg/injection, schedule: Q01DX009 (ip), vehicle: saline + Tween-80 + alcohol, higher = larger tumour) was 2 % of control. For the same molecule, the T/C (endpoint: median tumor weight (est.), dose: 3.0 mg/kg/injection, schedule: Q01DX009 (ip), vehicle: saline + alcohol, higher = larger tumour) was 27 % of control and the T/C (endpoint: median tumor weight (est.), dose: 6.0 mg/kg/injection, schedule: Q01DX009 (ip), vehicle: saline + alcohol, higher = larger tumour) was 3 % of control.
